Where a name gives a salt, the structure may show the parent alone.
What follows are compounds tested against T1, human recombinant ENPP1 enzymes (Homo sapiens, UniProt P22413) (assay: ENPP1 Enzyme Assay with cGAMP Substrate (AMP-Glo)). Conditions: human recombinant ENPP1, cGAMP 5 μM, 37° C. 90 minutes, AMP-Glo luminescence; read-out: Enzymatic activity (IC50).
T1 construct: purchased R & D systems
T1 sequence (P22413 1-925): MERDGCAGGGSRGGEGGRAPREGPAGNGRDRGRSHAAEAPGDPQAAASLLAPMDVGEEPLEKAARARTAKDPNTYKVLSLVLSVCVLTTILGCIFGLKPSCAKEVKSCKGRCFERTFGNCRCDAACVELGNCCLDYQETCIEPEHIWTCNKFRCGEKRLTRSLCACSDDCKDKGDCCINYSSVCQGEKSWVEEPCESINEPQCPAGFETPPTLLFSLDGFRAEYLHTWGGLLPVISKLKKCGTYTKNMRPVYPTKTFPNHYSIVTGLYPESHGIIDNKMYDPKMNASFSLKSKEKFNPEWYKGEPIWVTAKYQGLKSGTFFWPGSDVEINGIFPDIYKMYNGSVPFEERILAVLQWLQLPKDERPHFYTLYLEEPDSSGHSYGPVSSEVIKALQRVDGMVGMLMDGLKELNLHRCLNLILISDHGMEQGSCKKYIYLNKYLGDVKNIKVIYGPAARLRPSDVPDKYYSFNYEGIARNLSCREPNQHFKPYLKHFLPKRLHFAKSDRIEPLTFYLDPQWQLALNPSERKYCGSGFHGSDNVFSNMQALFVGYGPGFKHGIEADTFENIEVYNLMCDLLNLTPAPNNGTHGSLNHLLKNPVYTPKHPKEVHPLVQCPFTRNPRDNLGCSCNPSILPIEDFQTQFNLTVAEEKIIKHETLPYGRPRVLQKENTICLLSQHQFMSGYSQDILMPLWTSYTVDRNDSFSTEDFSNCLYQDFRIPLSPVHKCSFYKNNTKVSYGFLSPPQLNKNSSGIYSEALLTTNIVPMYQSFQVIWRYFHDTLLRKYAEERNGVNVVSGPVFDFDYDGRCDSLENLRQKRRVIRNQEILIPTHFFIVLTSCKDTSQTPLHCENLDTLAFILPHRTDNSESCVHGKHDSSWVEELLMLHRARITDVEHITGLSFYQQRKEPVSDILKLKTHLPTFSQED
Format: biochemical
Method: ENPP1 hydrolyzes nucleotides or nucleotide derivatives to produce nucleoside-5′-monophosphate and pyrophosphate. In addition, ENPP1 hydrolyzes 2′,3′-cGAMP to produce 5′-adenosine monophosphate (AMP) and 5′-guanosine monophosphate (GMP). AMP produced from the reaction is measured using the AMP-Glo® kit (Promega). The AMP-Glo® kit contains two reagents. The first reagent terminates the AMP-producing enzymatic reaction, removes ATP and converts the produced AMP into ADP. The second reagent converts ADP into ATP which is used to generate luminescence in the luciferase reaction. The amount of luminescence measured is proportional to the amount of AMP produced by ENPP1.
The final reaction solution contains 50 mM Tris (pH 8.5) buffer, 250 mM NaCl, 0.5 mM CaCl2), 1 μM ZnCl2, 5% glycerol and 1% DMSO. Serially diluted ENPP1 inhibitors (typically in the range of 10 μM to 0.5 nM) were pre-stored with human recombinant ENPP1 enzymes (R & D systems) at 3 ng/reaction and room temperature (RT) for 5 to 10 minutes. The reaction was initiated by addition of cGAMP (at a final concentration of 5 μM) and reacted at 37° C. for 90 minutes. At the end of the reaction, 10 μl of the AMP-Glo first reagent was added to stop the reaction and the result was stored at room temperature for 1 hour. After storage, 20 μl of an AMP detection solution (a mixture of AMP-Glo II reagent and Kinase-Glo at a ratio of 1:100) was added and stored at room temperature for 1 hour. Luminescence signals were measured using a Victor® plate reader (Perkin Elmer). The maximal activity control (containing enzymes and substrates in the presence of 1% DMSO; MAX) and the minimal activity control (containing substrates and 1% DMSO; MIN) were evaluated simultaneously. In each experiment, serially diluted reference ENPP1 inhibitors were tested as well. IC50, indicating % residual activity versus compound concentration was determined by fitting inhibition curves using the 3-parameter analysis of GraphPad Prism® software. Serially diluted samples of one compound were tested two or more times and an average IC50 of each compound was calculated.

Row | Compound | IC50
1 | COc1ccc2c(c1)nnn2-c1ccc(CNS(N)(=O)=O)cc1 [Example 51, N-(4-(5-methoxy-1H-benzo[d][1,2,3]triazol-1-yl)benzyl)sulfamide Hydrochloride] | < 1000 nM
2 | COc1ccc2nnn(-c3ccc(CNS(N)(=O)=O)cc3)c2c1 [Example 52, N-(4-(6-methoxy-H-benzo[d][1,2,3]triazol-1-yl)benzyl)sulfamide] | < 1000 nM
3 | COc1cccc2nnn(-c3ccc(CNS(N)(=O)=O)cc3)c12 [Example 53, N-(4-(7-methoxy-1H-benzo[d][1,2,3]triazol-1-yl)benzyl)sulfamide] | > 10000 nM
4 | COc1cc(OC)c2nnn(-c3ccc(CNS(N)(=O)=O)cc3)c2c1 [Example 54, N-(4-(4,6-dimethoxy-1H-benzo[d][1,2,3]triazol-1-yl)benzyl)sulfamide] | 1000 to 10000 nM
5 | COc1cc2nnn(-c3ccc(CNS(N)(=O)=O)cc3)c2cc1OC [Example 55, N-(4-(5,6-dimethoxy-1H-benzo[d][1,2,3]triazol-1-yl)benzyl)sulfamide] | < 1000 nM
6 | NS(=O)(=O)NCc1ccc(-n2nnc3ccccc32)c(F)c1 [Example 56, N-(4-(1H-benzo[d][1,2,3]triazol-1-yl)-3-fluorobenzyl)sulfamide] | < 1000 nM
7 | NS(=O)(=O)NCc1ccc(-n2nnc3ccccc32)c(F)c1F [Example 57, N-(4-(1H-benzo[d][1,2,3]triazol-1-yl)-2,3-difluorobenzyl)sulfamide] | < 1000 nM
8 | NS(=O)(=O)NCc1cc(F)c(-n2nnc3ccccc32)c(F)c1 [Example 58, N-(4-(1H-benzo[d][1,2,3]triazol-1-yl)-3,5-difluorobenzyl)sulfamide] | < 1000 nM
9 | COc1ccc2c(c1)nnn2-c1ccc(CNS(N)(=O)=O)cc1Cl [Example 59, N-(3-chloro-4-(5-methoxy-1H-benzo[d][1,2,3]triazol-1-yl)benzyl)sulfamide] | < 1000 nM
10 | COc1ccc2c(c1)nnn2-c1ccc(CNS(N)(=O)=O)c(F)c1 [Example 60, N-(2-fluoro-4-(5-methoxy-1H-benzo[d][1,2,3]triazol-1-yl)benzyl)sulfamide] | < 1000 nM
11 | COc1ccc2c(c1)nnn2-c1ccc(CNS(N)(=O)=O)cc1F [Example 61, N-(4-(5-methoxy-1H-benzo[d][1,2,3]triazol-1-yl)-3-fluorobenzyl)sulfamide] | < 1000 nM
12 | COc1ccc2c(c1)nnn2-c1c(F)cc(CNS(N)(=O)=O)cc1F [Example 64, N-(3,5-difluoro-4-(5-methoxy-1H-benzo[d][1,2,3]triazol-1-yl)-benzyl)sulfamide] | < 1000 nM
13 | COc1ccc2c(c1)nnn2-c1ccc(CNS(N)(=O)=O)c(F)c1F [Example 65, N-(2,3-difluoro-4-(5-methoxy-1H-benzo[d][1,2,3]triazol-1-yl)-benzyl)sulfamide] | < 1000 nM
14 | COc1ccc2c(c1)nnn2-c1ccc(CNS(N)(=O)=O)cc1C [Example 66, N-(4-(5-methoxy-1H-benzo[d][1,2,3]triazol-1-yl)-3-methylbenzyl)sulfamide] | < 1000 nM
15 | COc1ccc2c(c1)nnn2-c1ccc(CNS(N)(=O)=O)cc1OC [Example 68, N-(3-methoxy-4-(5-methoxy-1H-benzo[d][1,2,3]triazol-1-yl)benzyl)sulfamide] | 1000 to 10000 nM
16 | COc1cc2nnn(-c3ccc(CNS(N)(=O)=O)cc3)c2cc1C [Example 69, N-(4-(5-methoxy-6-methyl-1H-benzo[d][1,2,3]triazol-1-yl)benzyl)sulfamide] | 1000 to 10000 nM
17 | COc1cc2nnn(-c3ccc(CNS(N)(=O)=O)cc3F)c2cc1C [Example 70, N-(3-fluoro-4-(5-methoxy-6-methyl-1H-benzo[d][1,2,3]triazol-1-yl)benzyl)sulfamide] | < 1000 nM
18 | COc1cc2nnn(-c3ccc(CNS(N)(=O)=O)cc3F)c2cc1OC [Example 71, N-(4-(5,6-dimethoxy-1H-benzo[d][1,2,3]triazol-1-yl)-3-fluorobenzyl)sulfamide] | < 1000 nM
19 | COc1ccc2c(c1)nnn2-c1cccc(CCNS(N)(=O)=O)c1 [Example 72, N-(3-(5-methoxy-1H-benzo[d][1,2,3]triazol-1-yl)phenethyl)sulfamide] | < 1000 nM
